Assay results as given in patent publication US20050282205A1, “GLUT5 transporters expressed in cancer cells” (Xenoport, Inc., priority 2004, published 2005).

Target: T1, Human GLUT5 (Homo sapiens, UniProt P22732)
T1 construct: expressed in transfected cells; host or cells: Xenopus oocytes injected with in vitro transcribed GLUT5 cRNA
T1 sequence (P22732 1-501): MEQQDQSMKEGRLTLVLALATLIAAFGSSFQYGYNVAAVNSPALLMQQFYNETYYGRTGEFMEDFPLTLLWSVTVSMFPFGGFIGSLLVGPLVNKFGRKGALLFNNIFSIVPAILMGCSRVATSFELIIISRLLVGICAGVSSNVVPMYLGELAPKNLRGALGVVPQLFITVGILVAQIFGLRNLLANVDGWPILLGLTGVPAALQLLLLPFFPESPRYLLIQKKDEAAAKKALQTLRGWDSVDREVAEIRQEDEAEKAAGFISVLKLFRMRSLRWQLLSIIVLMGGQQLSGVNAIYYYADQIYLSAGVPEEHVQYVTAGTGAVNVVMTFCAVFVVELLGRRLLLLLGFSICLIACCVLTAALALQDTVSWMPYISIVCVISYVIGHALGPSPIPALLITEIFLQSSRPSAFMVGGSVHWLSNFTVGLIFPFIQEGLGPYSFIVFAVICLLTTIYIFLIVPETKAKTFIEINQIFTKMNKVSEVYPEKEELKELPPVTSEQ
Assay: 3H-fructose uptake in Xenopus oocytes expressing GLUT5
Type: cell-based
Settings: Xenopus oocytes injected with GLUT5 cRNA, ND96 buffer, 3 minutes, scintillation counting (FIG. 2)
Method: To assess transport function of a specific transporter protein, it can be desirable to clone the cDNA and express the protein in cells that have low endogenous transport activity. Human GLUT5 was cloned by PCR, fully sequenced, and subcloned into plasmids that can be used for expression in mammalian cells or Xenopus oocytes. […] For expression in Xenopus oocytes, in vitro GLUT5 cRNA was prepared and injected into defoliculated oocytes.
Oocytes expressing GLUT5 or control oocytes not expressing GLUT5 were incubated in an oocyte ringers (ND96) buffer (90 mM NaCl, 10 mM HemiNa HEPES, 2 mM KCl, 1 mM MgCl, 1.8 mM CaCl2) containing 0.5% bovine serum albumin and 3H-fructose ([…]) for 3 minutes. Oocytes were washed and uptake of radiolabel quantified by scintillation counting.

In the case of O=C(CO)[C@@H](O)[C@H](O)[C@H](O)CO [^3H-fructose, fructose], the “uptake of radiolabel into oocytes expressing GLUT5 versus noninjected controls” value is reported as “higher levels of ^3H-fructose uptake than noninjected controls”.
